Experimental data as given in PMC9610975, “Microemulsions Enhance the In Vitro Antioxidant Activity of Oleanolic Acid in RAW 264.7 Cells” (Pharmaceutics, 2022).
In brackets after ≈: the same amount, converted by molar mass.

What was measured:
[1] = Saturation solubility of OA in different oils and surfactants; assay type: physicochemical; conditions: thermodynamic from solid
Procedure: The solubility of OA in different vehicles was defined by adding an excess of OA to 2 mL of each of the tested solvents/tensides: Water, Capmul PG-8/NF, Capmul PG-12/NF, Capryol 90, Captex 300, Captex 355, Cremophor EL, Etyl Oleate, Isoprpyl myristate, Labrafac lipophile, Labrafilm 1944, Labrafilm 2125, Labrasol, Labrasol ALF, Lauroglycol 90, Nigella Oil, PEG400, Soybean Oil, Sunflower Oil, Transcutol, Triacetine, Tween 20 and Tween 80. Each mixture of solvent and OA was stirred for 24 h at 25 °C, then it was centrifuged at 14,000× g for 10 min. After removing the precipitate, the supernatant was diluted with MeOH and analyzed by HPLC-DAD to determine the concentration of the OA. The analyses were performed in triplicate.

[2] = In vitro release, dialysis bag method, EtOH:PBS (30:70); assay type: physicochemical; conditions: 6 h, 37 °C
Procedure: The release studies of OA from MEs in comparison to OA solution (SDS 0.5% p/V in H2O) were carried out with the dialysis bag method (regenerated cellulose dialysis membranes, Spectrum Laboratories, Inc., Breda, The Netherlands, MWCO 12–14 kD). Two mL of the OA-MEs or the solution were placed into a 12–14 kDa dialysis membrane and immersed into 200 mL of the release medium at 37 °C under magnetic stirring, using EtOH:PBS (30:70) as the release medium. In vitro release study was also carried out in the simulated gastric fluid (SGF) medium at pH 1.2 for 2 h followed by simulated intestinal fluid (SIF) at pH 6.8 for 6 h. The composition of the gastric fluid was 2 g of NaCl and 7 mL of HCl per liter of deionized water. The intestinal fluid was composed of 6.805 g of KH2PO4 and 0.896 g of NaOH per liter of deionized water. At predetermined time intervals, 1 mL of each release medium was withdrawn and replaced with an equal volume of fresh solution. The OA concentration in samples was finally determined by HPLC-DAD. All studies were performed in triplicate.
To evaluate the kinetics and mechanism of drug release from the microemulsions, the Korsmeyer–Peppas model, Hixson–Crowell model and Higuchi model, and the first order and zero order mathematical models, were used, and the best-fitted model was selected based on high regression coefficient (R^2) value for the release data.

[3] = Parallel artificial membrane permeability assay (PAMPA); assay type: in vitro ADME; conditions: room temperature, read-out: permeability coefficient (Pe)
Procedure: The test was carried out in a 96-well, MultiScreen-IP PAMPA (Millipore corporation) filter plate in order to evaluate the ability of compounds to diffuse from a donor compartment into an acceptor compartment. EtOH:PBS (30:70) mixture was selected as the acceptor medium for ME-1-OA and EtOH:PBS (5:95) for ME-2-OA. Each membrane was activated with a combination of lecithin and cholesterol, 10 g/L and 8 g/L, respectively, in 1,7-octadiene. Immediately after the deposition of the solution (5 µL), 250 µL of OA solution and appropriately diluted MEs-OA were added to each well of the donor plate. Each receptor plate was filled with 250 µL of acceptor medium. The plate was incubated at room temperature for 1 h. Then, the samples were withdrawn, properly diluted with methanol, centrifuged for 10 min at 14,000× g, and the OA concentration determined by HPLC-DAD. The permeability coefficient Pe (cm/s) was calculated according to the following equation: Pe=−ln 1−CAt/Ceq/A 1/VD+1/VAt where A is the active surface area (0.3 cm^2 × apparent porosity of the filter), VD and VA the well volume of the donor and acceptor plate (mL), respectively, t the incubation time (s), and CAt and CDt the concentration of OA in the acceptor and donor plate at time t, respectively. Ceq was calculated according to: Ceq=CDt × VD+CAt × VA/VA+VD

RAW 264.7 cells [4] = assay: MTT assay, cell viability without LPS; assay type: cell-based, murine; conditions: 18 h, compared to untreated control cells
Procedure: The murine macrophages RAW 264.7 cell line (ATCC TIB-71™) was used in this study. Cells were grown in DMEM culture medium supplemented with L-glutamine (2 mM), streptomycin (100 µg/mL) and penicillin (100 U/mL), and 10% Heat-Inactivated Fetal Bovine Serum (HI-FBS), at 37 °C in 5% CO2 atmosphere. HI-FBS was obtained by incubating FBS at 55 °C for 30 min. Upon reaching 90% confluence, macrophage subcultures were prepared by scraping cells and adding appropriate dilutions of the cell suspension to a new plate. The culture medium was replaced every 3 days. The Methyl Thiazolyl Tetrazolium (MTT) assay was used to assess the viability of RAW 264.7 cells under various experimental conditions. Cells were seeded in a 96-well plate (15 × 10^3 cells/well) in complete medium and incubated overnight. Next, cells were starved for 6 h, and then treated for an additional 18 h with OA and OA loaded in the two different formulations (ME-1-OA and ME-2-OA) at various concentrations, in the absence or presence of LPS (1 μg/mL). […] Subsequently, cells were incubated with a 0.5 mg/mL solution of MTT (100 μL/well) for 1 h in the dark at 37 °C. After a wash in PBS, the insoluble formazan crystals were dissolved by adding 100 μL/well of dimethyl sulfoxide (DMSO). The iMARK microplate reader (Bio-Rad, Hercules, CA, USA) was used to measure absorbance values at a wavelength of 595 nm. […]

RAW 264.7 cells [5] = assay: MTT assay, LPS-induced reduction of cell viability; assay type: cell-based, murine; conditions: 18 h
Procedure: In in vitro cell-based experiments, cells were incubated in serum-free DMEM medium (starvation medium) for 6 h and then incubated for an additional 18 h in the presence of LPS (1 μg/mL). LPS was used as a pro-inflammatory and pro-oxidant stimulus. Cells untreated and not exposed to LPS stimulus were used as controls. The Methyl Thiazolyl Tetrazolium (MTT) assay was used to assess the viability of RAW 264.7 cells under various experimental conditions. Cells were seeded in a 96-well plate (15 × 10^3 cells/well) in complete medium and incubated overnight. Next, cells were starved for 6 h, and then treated for an additional 18 h with OA and OA loaded in the two different formulations (ME-1-OA and ME-2-OA) at various concentrations, in the absence or presence of LPS (1 μg/mL). […] Subsequently, cells were incubated with a 0.5 mg/mL solution of MTT (100 μL/well) for 1 h in the dark at 37 °C. After a wash in PBS, the insoluble formazan crystals were dissolved by adding 100 μL/well of dimethyl sulfoxide (DMSO). The iMARK microplate reader (Bio-Rad, Hercules, CA, USA) was used to measure absorbance values at a wavelength of 595 nm. Data were reported in percentage terms compared with untreated control cells not exposed to LPS. The experiment was repeated in triplicate.

RAW 264.7 cells [6] = assay: Intracellular ROS production (DCFDA probe) under LPS; assay type: cell-based, murine; conditions: 18 h
Procedure: In in vitro cell-based experiments, cells were incubated in serum-free DMEM medium (starvation medium) for 6 h and then incubated for an additional 18 h in the presence of LPS (1 μg/mL). LPS was used as a pro-inflammatory and pro-oxidant stimulus. Cells untreated and not exposed to LPS stimulus were used as controls. DCFDA fluorescent probe was used for sensitive and rapid quantification of intracellular ROS in response to LPS stimulus. Cells were seeded in a 96-well plate (20 × 10^3 cells/well) in complete medium and incubated overnight. After 6 h starvation, cells were treated for an additional 18 h with OA and OA loaded in the two different formulations (ME-1-OA and ME-2-OA) at various concentrations, in the absence or presence of LPS (1 μg/mL). […] Next, DCFDA probe (10 μM in PBS) was added to each well and incubated in the dark for 1.5 h at 37 °C. Fluorescence values were measured at excitation and emission wavelengths of 485 and 538 nm, respectively, using a fluorescence microplate reader (Fluoroskan Ascent^TM FL Microplate Fluorometer, Thermo Fisher Scientific, (Waltham, MA, USA). The level of intracellular ROS was normalized to cell viability. Data were reported in percentage terms compared with untreated control cells not exposed to LPS. The experiment was repeated in triplicate.

[7] = set-up: method as in PMID 17163409; conditions: water; cited from earlier work
[8] = set-up: method as in PMID 17163409; conditions: rats, oral doses of 25 and 50 mg/kg; cited from earlier work
[9] = LPS 1 μg/mL, compared with unstimulated control cells

CC1(C)CC[C@]2(C(=O)O)CC[C@]3(C)C(=CC[C@@H]4[C@@]5(C)CC[C@H](O)C(C)(C)[C@@H]5CC[C@]43C)[C@@H]2C1 [OA, Oleanolic acid]
solubility at 24 h ([1]; oil or lipid, in Capmul PG-8/NF, 24 h at 25 °C): 19.72 ± 0.13 mg/mL (≈ 43.2 mM) | solubility at 24 h ([1]; oil or lipid, in Capmul PG-12/NF, 24 h at 25 °C): 16.4 ± 1.04 mg/mL (≈ 36 mM) | solubility at 24 h ([1]; oil or lipid, in Capryol 90, 24 h at 25 °C): 24.9 ± 0.9 mg/mL (≈ 54.6 mM) | solubility at 24 h ([1]; oil or lipid, in Captex 300, 24 h at 25 °C): 3.74 ± 0.1 mg/mL (≈ 8.19 mM) | solubility at 24 h ([1]; oil or lipid, in Captex 355, 24 h at 25 °C): 3.19 ± 0.24 mg/mL (≈ 6.98 mM) | solubility at 24 h ([1]; oil or lipid, in Etyloleate, 24 h at 25 °C): 2.13 ± 0.21 mg/mL (≈ 4.66 mM) | solubility at 24 h ([1]; oil or lipid, in Isopropil myristate, 24 h at 25 °C): 9.44 ± 1.05 mg/mL (≈ 20.7 mM) | solubility at 24 h ([1]; oil or lipid, in Labrafac Lipophile, 24 h at 25 °C): 13.3 ± 0.87 mg/mL (≈ 29.1 mM) | solubility at 24 h ([1]; oil or lipid, in Labrasol ALF, 24 h at 25 °C): 12 ± 0.84 mg/mL (≈ 26.2 mM) | solubility at 24 h ([1]; oil or lipid, in Labrasol, 24 h at 25 °C): 13.3 ± 0.21 mg/mL (≈ 29.1 mM) | solubility at 24 h ([1]; oil or lipid, in Lauroglycole 90, 24 h at 25 °C): 10.8 ± 0.56 mg/mL (≈ 23.5 mM) | solubility at 24 h ([1]; oil or lipid, in Nigella oil, 24 h at 25 °C): 35.4 ± 1.41 mg/mL (≈ 77.5 mM) | solubility at 24 h ([1]; oil or lipid, in Soybean oil, 24 h at 25 °C): 1.06 ± 0.17 mg/mL (≈ 2.32 mM) | solubility at 24 h ([1]; oil or lipid, in Sunflower oil, 24 h at 25 °C): 11.8 ± 0.46 mg/mL (≈ 25.7 mM) | solubility at 24 h ([1]; oil or lipid, in Triacetine, 24 h at 25 °C): 3.09 ± 0.17 mg/mL (≈ 6.77 mM) | solubility at 24 h ([1]; organic solvent or mixture, in PEG 400, 24 h at 25 °C): 8.49 ± 0.58 mg/mL (≈ 18.6 mM) | solubility at 24 h ([1]; organic solvent or mixture, in Transcutol HP, 24 h at 25 °C): 41 ± 2.41 mg/mL (≈ 89.8 mM) | solubility at 24 h ([1]; in Cremophor EL, 24 h at 25 °C): 28.3 ± 0.93 mg/mL (≈ 62 mM) | solubility at 24 h ([1]; in Tween 20, 24 h at 25 °C): 6.19 ± 0.58 mg/mL (≈ 13.6 mM) | solubility at 24 h ([1]; in Tween 80, 24 h at 25 °C): 4.56 ± 0.36 mg/mL (≈ 9.98 mM) | OA released [2]: 23.6 ± 1.25% | Papp at 1 h [3]: 0.369 ×10⁻⁶ cm/s | change in cell viability (RAW 264.7 cells [4]; 0.05–1 μg/mL): No significant change in cell viability | reduction in cell viability (RAW 264.7 cells [4]; 2.5–10 μg/mL): 25–30% | protective effect against LPS-induced reduction of cell viability (RAW 264.7 cells [5]; free OA 0.05–1 μg/mL with LPS 1 μg/mL): no significant protective effect | effect against LPS-induced intracellular ROS production (RAW 264.7 cells [6]; free OA 0.25–1 μg/mL with LPS 1 μg/mL): mild but significant | aqueous solubility [7]: 1.75 ng/mL (≈ 3.83e-06 mM) | oral bioavailability [8]: 0.7%

lipopolysaccharide [LPS, reference compound]
cell viability (RAW 264.7 cells [5]; [9]): 70 ± 7% | intracellular ROS levels (RAW 264.7 cells [6]; [9]): 165 ± 7%
